The record followed here is patent publication US10501748B2, “Methods and compositions for integration of an exogenous sequence within the genome of plants” (Dow AgroSciences LLC, priority 2013, dated 2019).

Data set [1] relates to protoplasts of SEC-derived cell suspension culture of cv. Bobwhite MPB26RH. In words: basal tolerance to BASTA of protoplast agarose bead-type cultures (calli growth). Particulars: 2 weeks. The format is cell-based, Triticum aestivum. The source says:
BASTA® selection conditions are optimized using protoplasts derived from somatic embryogenic callus (SEC)-derived cell suspension culture of the wheat line cv. Bobwhite MPB26RH. While protoplasts derived from Bobwhite MPB26RH are non-totipotent (i.e., cannot be used to regenerate entire plants), the selection conditions established for enriching the events that express the PAT gene are expected to be transferable to any protoplast-based transformation system based on a totipotent wheat genotype. The experiments are conducted, and the basal tolerance of the wild-type donor wheat line cv. Bobwhite MPB26RH to BASTA® is established. The use of BASTA® selection conditions stronger than basal tolerance are identified and used to select for transformed cells expressing the PAT gene.
Protoplasts are isolated from an established SEC-derived cell suspension culture and used to establish agarose bead-types cultures, as described previously. The basal tolerance of wheat line cv. Bobwhite MPB26RH to BASTA® is determined by incubating the agarose bead-type cultures in media supplemented with 0, 0.5, 2.5, 5, 7.5, 10, 20, 30, 40 and 50 mg/L BASTA® and assessing the rate of calli growth after 2 weeks. The BASTA® concentrations (e.g., higher than 20 mg/L) that severely impeded calli development are optimal for enriching and selecting wheat cells having the PAT gene.

Data set [2] has as its system scutella of wild-type cv. Bobwhite MPB26RH (P197/P197). In words: basal tolerance to sulfometuron methyl at the callus induction stage. The following applies: 100 nM, 4 weeks, compared to untreated samples. The format is cell-based, Triticum aestivum. How it is done: A series of experiments were performed to determine optimal selection conditions for regenerating wheat plants expressing the AHAS (P197S) mutation conferring tolerance to sulfonylurea class herbicides. These experiments were based on testing the basal tolerance of the wild-type donor wheat line cv. Bobwhite MPB26RH (P197/P197 genotype, which confers susceptibility to sulfonylureas) at the callus induction, plant regeneration and rooting stages of an established wheat transformation system. Similar experiments were performed to determine the basal tolerance of transgenic cv. Bobwhite MPB26RH events that had randomly integrated T-DNA expressing the AHAS (P197S) mutation, which confers tolerance to sulfonylurea selection agents.
The basal tolerance of the wild-type donor wheat line to sulfometuron methyl at the callus induction stage was determined as follows: scutella of immature zygotic embryos were isolated, as previously described in Example 4, and placed in 10 cm petri dishes containing CIM medium supplemented with 0, 100, 500, 1000, 1500 and 2000 nM sulfometuron methyl, respectively. Twenty scutella were placed in each petri dish. A total of 60 scutella were tested at each sulfometuron methyl concentration. After incubation at 24° C. in the dark for 4 weeks, the amount of somatic embryogenic callus formation (SEC) at each sulfometuron methyl concentration was recorded. […]

In data set [3] the test system is somatic embryogenic callus of wild-type cv. Bobwhite MPB26RH. Description: basal tolerance to sulfometuron methyl at the plant regeneration stage. The format is cell-based, Triticum aestivum. The following applies: wild-type donor wheat line; 2000 nM; 2 weeks; compared to untreated samples. How it is done: The basal tolerance of the wild-type donor wheat line to sulfometuron methyl at the plant regeneration stage was determined as follows: scutella of immature zygotic embryos from the donor wheat line were isolated and placed in 10 cm petri dishes containing CIM medium. Then SEC was allowed to form by incubating at 24° C. in the dark for 4 weeks. The SEC was transferred to 10 cm petri dishes containing DRM medium supplemented with 0, 100, 500, 1000, 1500, 2000, 2500 and 3000 nM sulfometuron methyl, respectively. Twenty CIM were placed in each petri dish. A total of 60 CIM were tested for basal tolerance response at each sulfometuron methyl concentration. After incubation for 2 weeks at 24° C. under a 16/8 (light/dark) hour photoperiod in a growth room, the regeneration response was recorded.

Data set [4] relates to regenerated plants of wild-type cv. Bobwhite MPB26RH. Description: basal tolerance to sulfometuron methyl at the plant rooting stage. In kind it is in vivo, Triticum aestivum. Particulars: wild-type donor wheat line; 3 weeks. How it is done:
The basal tolerance of the wild-type donor wheat line to sulfometuron methyl at the plant rooting stage was determined as follows: scutella of immature zygotic embryos were isolated and placed in 10 cm petri dishes containing CIM medium. Then SEC was allowed to form by incubating at 24° C. in the dark for 4 weeks. The SEC was transferred to 10 cm petri dishes containing DRM medium and incubated for 2 weeks at 24° C. under a 16/8 (light/dark) hour photoperiod to allow plant regeneration to take place. Regenerated plants were transferred to 10 cm petri dishes containing RM medium supplemented with 0, 100, 200, 250, 300, 400, 500, 1000 and 2000 nM sulfometuron methyl, respectively. Ten regenerated plants were placed in each petri dish. A total of 30 regenerated plants were tested for basal tolerance response at each sulfometuron methyl concentration. After incubation for 3 weeks at 24° C. under a 16/8 (light/dark) hour photoperiod in a growth room, the root formation response was recorded.

For data set [5], the system named is transgenic wheat events with low-copy T-DNA expressing AHAS (P197S). In words: basal tolerance to sulfometuron methyl at the rooting stage of transgenic AHAS (P197S) events. The following applies: transgenic AHAS (P197S) events from pDAS000164; 400-600 nM; 2 weeks. In kind it is in vivo, Triticum aestivum. The protocol:
The basal tolerance of transgenic wheat events with randomly integrated, low-copy (≤3) T-DNA expressing the AHAS (P197S) mutation to sulfometuron methyl from pDAS000164 at the plant rooting stage was determined as follows: four independent transgenic events were randomly selected and multiplied in vitro by sub-culturing on multiplication medium. Following multiplication, plants for each event were transferred to 10 cm petri dishes containing RM medium supplemented with 0, 400, 450, 500, 550 and 600 nM sulfometuron methyl, respectively. Four plants (one from each of the four events) were placed in each petri dish. A total of 3 plants per event were tested for basal tolerance at each sulfometuron methyl concentration. After incubation for 2 weeks at 24° C. under a 16/8 (light/dark) hour photoperiod in a growth room, the root formation response was recorded.

The subject of data set [6] is endogenous AHAS locus in scutella of cv. Bobwhite MPB26RH. Description: biolistics-mediated transformation for first sequential transgene stack with IMAZAMOX or BASTA selection. In kind it is cell-based, Triticum aestivum. Particulars: donor with pDAB109350 at 5:1. The protocol:
A total of 55,468 scutella of immature zygotic embryos from the donor wheat line cv. Bobwhite MPB26RH were prepared for biolistics-mediated DNA delivery, as described previously. DNA-coated gold particles were prepared with the formulations as described above. For transfections performed using the linear double-stranded donor DNA derived from “QA_pDAS000434” or pDAS000433, the donor DNA was mixed at a 5:1 molar ratio with plasmid DNA for pDAB109350 (encoding ZFNs 29732 and 29730). Transfections performed using pDAS000143 were performed using gold particles that were coated only with plasmid DNA for pDAS000143.
Biolistic-mediated transfections were performed as described previously. Following bombardment, the transfected scutella were incubated at 26° C. in the dark for 16 h before being transferred onto medium for callus induction.
Two different chemical selection strategies were used to enrich for regenerated wheat plants with an integrated linear double-stranded donor molecule. […] The purpose of the second chemical selection strategy was to allow the frequency of precise (on-target) versus random (off-target) donor integration to be quantified, as well as the frequency of perfect and imperfect integration at the endogenous AHAS loci. […]

`CP(=O)(O)CCC(N)C(=O)O` (racemic) [BASTA, DL-Phosphinothricin]: the “concentrations that severely impeded calli development” value in data set [1] is listed as “higher than 20 mg/L”.
Turning to `COC(=O)c1ccccc1S(=O)(=O)NC(=O)Nc1nc(C)cc(C)n1` [sulfometuron methyl], the “reduction of SEC formation” value in data set [2] is reported as “about 70%”. Further, in data set [3], the “reduction of plant regeneration” value is recorded as “about 80%”. Moreover, in data set [4], the “concentrations at which root formation was severely inhibited” value is “higher than 400 nM”. In data set [5], the “root formation compared to untreated controls” value was “not restricted”.

B1: pDAS000433: donor molecule backbone for first transgene stack, S653N; SEQ ID NO:71 (nucleic acid)
DNA: CCACTCTTGCCCTACACGACACTGAAGACCTTATGATTCCAAACGGCGGCGCCTTCAAGGACATGATCATGGAGGGTGATGGCAGGACCTCGTACTGAAATTTCGACCTACAAGACCTACAAGTGTGACATGCGCAATCAGCATGGTGCCCGCGTGTTGTATCAACTACTAGGGGTTCAACTGTGAACCATGCGTTTTCTAGTTTGCTTGTTTCATTCATATAAGCTTGTGTTACTTAGTTCCGAACCCTGTAGCTTTGTAGTCTATGCTCTCTTTTGTAGGGATGTGCTGTCATAAGATATCATGCAAGTTTCTTGTCCTACATATCAATAATAAGTACTTCCATGGAATAATTCTCAGTTCTGTTTTGAATTTTGCATCTTCTCACAAACAGTGTGCTGGTTCCTTTCTGTTCGCTGACGCCCTCCTCGACTCCATCCCCATGGTCGCCATCACGGGCCAGGTCCCCCGCCGCATGATCGGTAGCGACTTCGTGGGCGAGGAAAGCCTTTCGTCCAAGGTGGTCCCTCCTCGCAATCTTGTTGGATGGTGAATATTATAAAAGCCTGCCCTTCTCGCGGGTAAGACTCCCGCCCATCCAGGATGAGGATGACCAGCCTTTTGCAGTTTATCCACTAGGGACAGGATTGCATCCTGCCGAAACCCTGCCAAGCTTGAGGTAGCCTCCAATTTGACGGTGCCGCCAGCGACGCCGTCTGGAACTGTCCTTTTTGAGGACCACTCCGTTTGTCTAGAGGTACCTGGAGATCATGACATTAAGGATGACCAGTTCGTAAAGGTCCTGCGGTGTCTATTGCTTTTCATAGGTTAATAAGTGTTTGCTAGACTGTGGTGAAAGGCCAAGACTCCCGCCCATCTCTCTATGCCCGGGACAAGTGCCACCCCACAGTGGGGCAGGATGAGGATGACCAAAGACTCCCGCCCATCTCACTAGGGACAGGATTGGCCTTTTGCAGTTTATCTCTATGCCCGGGACAAGTGTATCCGAAGTAAATAAAACCATCGGACTCTCGTATAAGACTGTCGACTCGACCGGCCGACGCATAGGTTCATTTGAAGCTGCTATTCTATTTAAATTGAAACTCGGACGGTAGCAGTGTGGTATGAGGTCTTCAGCACACTCGGTAACTCCAGTCAC
modifications: pDAS000433
On to B1, for which, in data set [6] (BASTA selection), the wheat plants recovered is given as 1,652. In addition, in data set [6] (IMAZAMOX selection), the “wheat plants with AHAS herbicide tolerance phenotype recovered” value was “No wheat plants”.
